Marks after values point to notes of the source that are not given here.
Key:
[1] = tested on: Puccinia recondita f. sp. tritici; assay: Test G: wheat leaf rust, spray after inoculation (curative) on wheat seedlings, visual disease rating; assay type: in vivo; settings: 100 = 100% disease control; for pest or weed control at 200 µg/mL / Test G rating (disease control): sprayed after inoculation, 0 = no disease control; for Test G rating (% disease control): spray after inoculation, rating without asterisk
Text: (§1) A hyphen (-) indicates no test results.

Alternaria solani = assay: Test B: tomato early blight, preventive spray on tomato seedlings, visual disease rating; settings: for pest or weed control at 200 µg/mL: Alternaria solani, in Solanum lycopersicum, read-out: Test B rating (disease control); for Test B rating (disease control) / Test B rating (% disease control): tomato early blight, 100 = 100% disease control; for Test B rating (disease control): 0 = no disease control relative to the controls; for Test B rating (% disease control): preventive spray, rating without asterisk
Septoria nodorum = assay: Test E: Septoria glume blotch, preventive spray on wheat seedlings, visual disease rating; settings: 100 = 100% disease control; for pest or weed control at 200 µg/mL: Parastagonospora nodorum, in Triticum aestivum, read-out: Test E rating (disease control), Septoria glume blotch; for pest or weed control at 200 µg/mL / Test E rating (disease control): 0 = no disease control relative to the controls; for Test E rating (disease control): Septoria glume blotch; for Test E rating (% disease control): Septoria glume blotch on wheat, preventive spray, rating without asterisk
[2] = tested on: Blumeria graminis f. sp. tritici; assay: Test I: wheat powdery mildew, preventive spray on wheat seedlings, visual disease rating; settings: for pest or weed control at 200 µg/mL: Blumeria graminis, in Triticum aestivum, read-out: Test I rating (disease control), wheat powdery mildew; for pest or weed control at 200 µg/mL / Test I rating (disease control) / Test I rating (% disease control): 100 = 100% disease control; for pest or weed control at 200 µg/mL / Test I rating (disease control): 0 = no disease control relative to the controls; for Test I rating (disease control) / Test I rating (disease control), value marked * / Test I rating (% disease control): wheat powdery mildew; for Test I rating (disease control), value marked *: rating marked with asterisk (*), not explained in the text shown; for Test I rating (% disease control): preventive spray, rating without asterisk
Septoria tritici = assay: Test F: wheat leaf blotch, preventive spray on wheat seedlings, visual disease rating; assay type: in vivo; set-up: Test F rating (disease control), value marked *: concentration or dose not given beside the values; settings: for pest or weed control at 200 µg/mL: Zymoseptoria tritici; for pest or weed control at 200 µg/mL / Test F rating (disease control) / Test F rating (% disease control): 100 = 100% disease control; for pest or weed control at 200 µg/mL / Test F rating (disease control): 0 = no disease control relative to the controls; for Test F rating (% disease control): preventive spray, rating without asterisk
Text: as §1

Botrytis cinerea = assay: Test A: tomato Botrytis, preventive spray on tomato seedlings, visual disease rating; settings: 100 = 100% disease control; for pest or weed control at 200 µg/mL: Botrytis cinerea, in Solanum lycopersicum, read-out: Test A rating (disease control), tomato Botrytis; for pest or weed control at 200 µg/mL / Test A rating (disease control): 0 = no disease control relative to the controls; for Test A rating (disease control) / Test A rating (% disease control): tomato Botrytis; for Test A rating (% disease control): preventive spray, 0 = no control relative to controls, rating without asterisk
Description: General protocol for preparing test suspensions for Tests A-I: the test compounds were first dissolved in acetone in an amount equal to 3% of the final volume and then suspended at the desired concentration (in ppm) in acetone and purified water (50/50 mix by volume) containing 250 ppm of the surfactant Trem® 014 (polyhydric alcohol esters). The resulting test suspensions were then used in Tests A-I. Each test was conducted in triplicate, and the results were averaged. Spraying a 200 ppm test suspension to the point of run-off on the test plants was the equivalent of a rate of about 800 g/ha. Unless otherwise indicated, the rating values indicate a 200 ppm test suspension was used. (An asterisk “*” next to the rating value indicates a 40 ppm test suspension was used.)
The test suspension was sprayed to the point of run-off on tomato seedlings. The following day the seedlings were inoculated with a spore suspension of Botrytis cinerea (the causal agent of tomato Botrytis) and incubated in saturated atmosphere at 20° C. for 48 h, and then moved to a growth chamber at 24° C. for 3 additional days, after which time visual disease ratings were made.

[3] = tested on: Puccinia recondita f. sp. tritici; assay: Test H: wheat leaf rust, preventive spray on wheat seedlings, visual disease rating; settings: 100 = 100% disease control; for pest or weed control at 200 µg/mL: read-out: Test H rating (disease control), wheat leaf rust, sprayed the day before inoculation; for pest or weed control at 200 µg/mL / Test H rating (disease control): 0 = no disease control; for Test H rating (disease control) / Test H rating (% disease control): wheat leaf rust; for Test H rating (disease control): sprayed the day before inoculation; for Test H rating (% disease control): preventive spray, rating without asterisk

Cc1nn(C)c(Nc2c(F)cc(F)cc2F)c1-c1ccc(F)cc1Br [Compound 74, 4-(2-bromo-4-fluorophenyl)-1,3-dimethyl-N-(2,4,6-trifluorophenyl)-1H-pyrazol-5-amine]
pest or weed control at 200 µg/mL [1]: 0%
pest or weed control at 200 µg/mL (Alternaria solani): 100%
pest or weed control at 200 µg/mL (Septoria nodorum): 98%
pest or weed control at 200 µg/mL [2]: 100%
pest or weed control at 200 µg/mL (Septoria tritici): 100%
pest or weed control at 200 µg/mL (Botrytis cinerea): 100%
pest or weed control at 200 µg/mL [3]: 100%

Cc1nn(C)c(Nc2ccc(F)cc2Br)c1-c1ccc(F)cc1Br [compound 95]
Test G rating (disease control) [1]: 91%
Test B rating (disease control) (Alternaria solani): 97%
Test E rating (disease control) (Septoria nodorum): 51%
Test I rating (disease control) [2]: 100%
Test F rating (disease control) (Septoria tritici): 100%
Test A rating (disease control) (Botrytis cinerea): 100%
Test H rating (disease control) [3]: 100%

COc1cc(F)c(-c2c(C)nn(C)c2Oc2c(F)cccc2F)c(F)c1 [compound 22]
Test G rating (disease control) [1]: 98%
Test B rating (disease control) (Alternaria solani): 100%
Test E rating (disease control) (Septoria nodorum): 78%
Test I rating (disease control) [2]: 99%
Test F rating (disease control) (Septoria tritici): 100%
Test A rating (disease control) (Botrytis cinerea): 100%
Test H rating (disease control) [3]: 100%

Cc1nn(C)c(Nc2ccc(F)cc2F)c1-c1ccc(F)cc1F [compound 64]
Test G rating (disease control) [1]: 0%
Test B rating (disease control) (Alternaria solani): 99%
Test E rating (disease control) (Septoria nodorum): 0%
Test I rating (disease control) [2]: 100%
Test F rating (disease control) (Septoria tritici): 100%
Test A rating (disease control) (Botrytis cinerea): 99%
Test H rating (disease control) [3]: 97%

Cc1nn(C)c(Nc2ccc(F)cc2F)c1-c1ccccc1F [compound 52]
Test G rating (disease control) [1]: 0%
Test B rating (disease control) (Alternaria solani): 44%
Test E rating (disease control) (Septoria nodorum): 0%
Test I rating (disease control) [2]: 98%
Test F rating (disease control) (Septoria tritici): 100%
Test A rating (disease control) (Botrytis cinerea): 94%
Test H rating (disease control) [3]: 60%

COc1ccc(-c2c(C)nn(C)c2Oc2ccc(C#N)cc2Cl)c(Cl)c1 [compound 93]
Test G rating (disease control) [1]: 0%
Test B rating (disease control) (Alternaria solani): 0%
Test E rating (disease control) (Septoria nodorum): 60%
Test I rating (disease control) [2]: 91%
Test F rating (disease control) (Septoria tritici): 100%
Test A rating (disease control) (Botrytis cinerea): 100%
Test H rating (disease control) [3]: 99%

COc1cc(F)c(Nc2c(-c3c(F)cc(F)cc3F)c(C)nn2C)c(F)c1 [compound 19]
Test G rating (disease control) [1]: 0%
Test B rating (disease control) (Alternaria solani): 82%
Test E rating (disease control) (Septoria nodorum): 0%
Test I rating (disease control) [2]: 91%
Test F rating (disease control) (Septoria tritici): 98%
Test A rating (disease control) (Botrytis cinerea): 99%
Test H rating (disease control) [3]: 89%

Cc1nn(C)c(Nc2ccc(Br)cc2Cl)c1-c1ccc(F)cc1Br [compound 173]
Test G rating (disease control) [1]: 0%
Test B rating (disease control) (Alternaria solani): 0%
Test E rating (disease control) (Septoria nodorum): 40%
Test I rating (disease control) [2]: 99%
Test F rating (disease control) (Septoria tritici): 100%
Test A rating (disease control) (Botrytis cinerea): 100%
Test H rating (disease control) [3]: 99%

Cc1nn(C)c(Nc2ccc(F)cc2Cl)c1-c1c(F)cccc1Cl [Compound 58, N-(2-chloro-4-fluorophenyl)-4-(2-chloro-6-fluorophenyl)-1,3-dimethyl-1H-pyrazol-5-amine]
pest or weed control at 200 µg/mL [1]: 32%
pest or weed control at 200 µg/mL (Alternaria solani): 100%
pest or weed control at 200 µg/mL (Septoria nodorum): 0%
pest or weed control at 200 µg/mL [2]: 100%
pest or weed control at 200 µg/mL (Septoria tritici): 100%
pest or weed control at 200 µg/mL (Botrytis cinerea): 99%
pest or weed control at 200 µg/mL [3]: 99%

COc1cc(Cl)c(Nc2c(-c3ccc(F)cc3Br)c(C)nn2C)c(Cl)c1 [compound 102]
Test G rating (disease control) [1]: 0%
Test B rating (disease control) (Alternaria solani): 0%
Test E rating (disease control) (Septoria nodorum): 0%
Test I rating (disease control), value marked * [2]: 95* %
Test F rating (disease control) (Septoria tritici): 98%
Test A rating (disease control) (Botrytis cinerea): 98%
Test H rating (disease control) [3]: 94%

COc1ccc(Nc2c(-c3ccc(F)cc3F)c(C)nn2C)c(F)c1 [compound 63]
Test G rating (disease control) [1]: 0%
Test B rating (disease control) (Alternaria solani): 99%
Test E rating (disease control) (Septoria nodorum): 0%
Test I rating (disease control) [2]: 99%
Test F rating (disease control) (Septoria tritici): 99%
Test A rating (disease control) (Botrytis cinerea): 99%
Test H rating (disease control) [3]: 80%

COc1ccc(-c2c(C)nn(C)c2Nc2c(F)cc(Cl)cc2Cl)c(Cl)c1 [compound 201]
Test G rating (% disease control) [1]: 98%
Test B rating (% disease control) (Alternaria solani): 100%
Test E rating (% disease control) (Septoria nodorum): 99%
Test I rating (% disease control) [2]: 97%
Test F rating (% disease control) (Septoria tritici): 100%
Test A rating (% disease control) (Botrytis cinerea): 100%
Test H rating (% disease control) [3]: 100%

COc1ccc(-c2c(C)nn(C)c2Nc2c(F)cc(F)cc2Cl)c(Cl)c1 [compound 203]
Test G rating (% disease control) [1]: 79%
Test B rating (% disease control) (Alternaria solani): 100%
Test E rating (% disease control) (Septoria nodorum): 73%
Test I rating (% disease control) [2]: 98%
Test F rating (% disease control) (Septoria tritici): 100%
Test A rating (% disease control) (Botrytis cinerea): 95%
Test H rating (% disease control) [3]: 100%

COc1cc(F)c(Nc2c(-c3ccccc3F)c(C)nn2C)c(F)c1 [compound 54]
Test G rating (disease control) [1]: 27%
Test B rating (disease control) (Alternaria solani): 100%
Test E rating (disease control) (Septoria nodorum): 67%
Test I rating (disease control) [2]: 99%
Test F rating (disease control) (Septoria tritici): 99%
Test A rating (disease control) (Botrytis cinerea): 97%
Test H rating (disease control) [3]: 94%

Cc1nn(C)c(Nc2ccc(Br)cc2F)c1-c1ccc(F)cc1Br [compound 169]
Test G rating (disease control) [1]: 23%
Test B rating (disease control) (Alternaria solani): 0%
Test E rating (disease control) (Septoria nodorum): 60%
Test I rating (disease control) [2]: 99%
Test F rating (disease control) (Septoria tritici): 100%
Test A rating (disease control) (Botrytis cinerea): 100%
Test H rating (disease control) [3]: 96%

Cc1nn(C)c(Nc2c(F)cc(F)cc2Cl)c1-c1c(F)cccc1Cl [compound 87]
Test G rating (disease control) [1]: 0%
Test B rating (disease control) (Alternaria solani): 93%
Test E rating (disease control) (Septoria nodorum): 87%
Test I rating (disease control) [2]: 100%
Test F rating (disease control) (Septoria tritici): 100%
Test A rating (disease control) (Botrytis cinerea): 100%
Test H rating (disease control) [3]: 100%

Cc1nn(C)c(Nc2c(F)cc(F)cc2Cl)c1-c1ccc(F)cc1Br [Compound 84, 4-(2-bromo-4-fluorophenyl)-N-(2-chloro-4,6-difluorophenyl)-1,3-dimethyl-1H-pyrazol-5-amine]
pest or weed control at 200 µg/mL [1]: 92%
pest or weed control at 200 µg/mL (Alternaria solani): 99%
pest or weed control at 200 µg/mL (Septoria nodorum): 96%
pest or weed control at 200 µg/mL [2]: 100%
pest or weed control at 200 µg/mL (Septoria tritici): 100%
pest or weed control at 200 µg/mL (Botrytis cinerea): 100%
pest or weed control at 200 µg/mL [3]: 100%

Cc1nn(C)c(Nc2c(Cl)cc(Cl)cc2Cl)c1-c1ccc(F)cc1Br [compound 174]
Test G rating (disease control) [1]: 0%
Test B rating (disease control) (Alternaria solani): 0%
Test E rating (disease control) (Septoria nodorum): 0%
Test I rating (disease control), value marked * [2]: 99* %
Test F rating (disease control) (Septoria tritici): 100%
Test A rating (disease control) (Botrytis cinerea): 95%
Test H rating (disease control) [3]: 99%

Cc1nn(C)c(Oc2ccc(C#N)cc2Cl)c1-c1c(F)cccc1F [Compound 127, 3-chloro-4-[[4-(2,6-difluorophenyl)-1,3-dimethyl-1H-pyrazol-5-yl]oxy]benzonitrile]
pest or weed control at 200 µg/mL [1]: 0%
pest or weed control at 200 µg/mL (Alternaria solani): 0%
pest or weed control at 200 µg/mL (Septoria nodorum): 0%
pest or weed control at 200 µg/mL [2]: 97%
pest or weed control at 200 µg/mL (Septoria tritici): 100%
pest or weed control at 200 µg/mL (Botrytis cinerea): 99%
pest or weed control at 200 µg/mL [3]: 97%

Cc1nn(C)c(Nc2ccc(Cl)cc2Cl)c1-c1ccc(F)cc1Cl [compound 88]
Test G rating (disease control) [1]: 41%
Test B rating (disease control) (Alternaria solani): 95%
Test E rating (disease control) (Septoria nodorum): 51%
Test I rating (disease control) [2]: 100%
Test F rating (disease control), value marked * (Septoria tritici; rating marked with asterisk (*), other test condition, not explained in the text shown): 100* %
Test A rating (disease control) (Botrytis cinerea): 100%
Test H rating (disease control) [3]: 100%

COc1cc(F)c(Nc2c(-c3ccc(F)cc3F)c(C)nn2C)c(F)c1 [compound 12]
Test G rating (disease control) [1]: 0%
Test B rating (disease control) (Alternaria solani): 0%
Test E rating (disease control) (Septoria nodorum): 0%
Test I rating (disease control) [2]: 82%
Test F rating (disease control) (Septoria tritici): 93%
Test A rating (disease control) (Botrytis cinerea): 100%
Test H rating (disease control) [3]: 94%
